What all share (type): cell-based
Assay [1] deals with ECHS1 Fibroblast cells. Nature of the assay: Propionate potency screen (cell viability, DAPI nuclei count). Particulars: for concentration-dependent curves: propionate potency screen, FIG. 4; for Propionate assay hits: 10 mM propionate medium, 96 hours, 3-fold serial dilution starting at 10 uM, Z-score >2. Here is the method:
The suspension was centrifuged at 200x g for 5 min. The suspension was discarded and the pellet was resuspended in the 10 mM propionate medium (DMEM+10% FBS+10 mM sodium propionate) and seeded at 750 cells/well (50 μL) into the compound wells (1 μM and 10 μM). For the positive control experiment, the cells were suspended in 10 mM propionate medium +5.5 mM glucose +0.01% DMSO and seeded at 750 cells/well (50 μL) into the blank wells. For the negative control experiment, the cells were suspended in the 10 mM propionate medium +0.01% DMSO and seeded at 750 cells/well (50 μL) into the blank wells. […] The plates were then washed 3x with 50 uL/well of PBS. The cells were stained with 25 μL/well of a solution DAPI and left at room temperature for 1 hr. The plates were then washed 3x with 50 uL/well of PBS prior to imaging. Agilent BioTek EL406 Microplate Washer Dispenser was used for the cell fixation and staining protocol. The plates were imaged using GE InCell2200 Cell Analyzer using PerkinElmer Columbus software quantification protocol. The data was analyzed using Genedata, Vortex, and Abase software. A Z-score value of >2 was used for both the Prestwick/Selleck and SPECS library (based on the negative control population) to determine hit selection.
ECHS1 Fibroblast cells were harvested at 70-80% confluent with trypsin and suspended in DMEM+10% FBS. The suspension was centrifuged at 200x g for 5 min. The suspension was discarded and the pellet was resuspended in the either the 5.5 mM galactose medium (DMEM+10% FBS+5.5 mM of galactose) or the 10 mM propionate medium (DMEM+10% FBS+10 mM sodium propionate). […] For the positive control experiment, the cells were suspended in either the 5.5 mM galactose medium or 10 mM propionate medium+5.5 mM glucose+0.01% DMSO and seeded at 750 cells/well (50 μL) into the blank wells. For the negative control experiment, the cells were suspended in the 5.5 mM galactose or 10 mM propionate medium +0.01% DMSO and seeded at 750 cells/well (50 μL) into the blank wells. […] The plates were then washed 3x with 50 μL/well of PBS. The cells were stained with 25 μL/well of a solution of DAPI and left at room temperature for 1 hr. The plates were then washed 3x with 50 μL/well of PBS prior to imaging. Agilent BioTek EL406 Microplate Washer Dispenser was used for the cell fixation and staining protocol. The plates were imaged using GE InCell2200 Cell Analyzer using PerkinElmer Columbus software quantification protocol. The data was analyzed using Genedata, Vortex, and Abase software. A Z-score value of >2 was used for both the Prestwick/Selleck and SPECS library (based on the negative control population) to determine hit selection.

Assay [2] relates to ECHS1 patient-derived fibroblasts. Nature of the assay: Mitochondrial respiration assay (Seahorse). Particulars: 48 hours; for respiration: glucose or galactose conditions, 1, 5 or 10 μM. The text has this: To assess the mechanism of action of hit compounds from the screens of previous Examples, which were based on rescue of viability after metabolic challenge, Seahorse assay was used to measure mitochondrial function in response to treatment at multiple concentrations. The Seahorse assay measures the following parameters: oxygen consumption; basal respiration rate; ATP-linked respiration; maximal respiration; reserve capacity; and ATP production rate. At baseline (no treatment), the ECHS1 patient-derived fibroblasts had lower respiration rates than the control fibroblasts in glucose culturing conditions (20% reduction) and in galactose culturing conditions (30% reduction).
ECHS1 patient-derived fibroblasts and age-matched and sex-matched control fibroblasts were initially grown in standard media (DMEM+2 mM glutamine+1 mM pyruvate) containing 10 mM glucose as the energy source. Cells were seeded into specialized 96-well plates at a density of 10,000 cells per well. One day after plating, cells were treated with the test compounds at the concentrations of 0, 1, 5, or 10 μM. Half of the samples were cultured in 10 mM glucose media in addition to the test compounds. The remaining half of the sample were cultured in 10 mM galactose media, which is a metabolic challenge, in addition to the test compound. Test compounds were incubated with cells for 48 hours. According to the standard Seahorse protocol, the following stressors were added to cells in sequential order: 2 μM oligomycin; 5 μM carbonyl cyanide-4-(trifluoromethoxy)phenylhydrazone (FCCP); 9 μM FCCP; 2 μM rotenone and 2 μM antimycin A. Data were normalized to cell number per well using a Hoechst stain for cell nuclei. Two rounds of experiments were conducted. The results were consistent between the two rounds.

For assay [3], the system named is ECHS1 Fibroblast cells. Nature of the assay: Galactose potency screen (cell viability, DAPI nuclei count). Particulars: for Galactose assay hits: 5.5 mM galactose medium, 96 hours, 3-fold serial dilution starting at 10 uM, Z-score >2. Here is the method:
Galactose Screen: Compound library plates were obtained from Prestwick/Selleck and SPECS (7,591 compounds total, 27 compounds/plate/concentration at 1 μM and 10 μM, 384-well plates). ECHS1 Fibroblast cells were harvested at 95% confluent with trypsin and suspended in Dulbecco's Modified Eagle Medium (DMEM)+10% Fetal Bovine Serum (FBS). The suspension was centrifuged at 200x g for 5 min. The suspension was discarded and the pellet was resuspended in the 5.5 mM galactose medium (DMEM+10% FBS+5.5 mM galactose) and seeded at 750 cells/well (50 μL) into the compound wells (1 μM and 10 μM). For the positive control experiment, the cells were suspended in 5.5 mM galactose medium+5.5 mM glucose+0.01% DMSO and seeded at 750 cells/well (50 μL) into the blank wells. For the negative control experiment, the cells were suspended in the 5.5 mM galactose medium+0.01% DMSO and seeded at 750 cells/well (50 μL) into the blank wells. The seeded plates were incubated at 37° C. for 96 hours, then 15 μL/well of 16% paraformaldehyde solution was added to the plates and allowed to sit for 15 min to fix the cells. The plates were then washed 3x with 50 μL/well of phosphate-buffered saline (PBS). The cells were stained with […] of a solution of 4,6-diamidino-2-phenylindole dilactate (DAPI, Invitrogen) and left at room temperature for 1 hr. The plates were then washed 3x with 50 μL/well of PBS prior to imaging. Agilent BioTek EL406 Microplate Washer Dispenser was used for the cell fixation and staining protocol. The plates were imaged using GE InCell2200 Cell Analyzer using PerkinElmer Columbus software quantification protocol. The data was analyzed using Genedata, Vortex, and Abase software. A Z-score value of >2 was used for the Prestwick/Selleck compound library and >3 for the SPECS library (based on the negative control population) to determine hit selection.
ECHS1 Fibroblast cells were harvested at 70-80% confluent with trypsin and suspended in DMEM+10% FBS. The suspension was centrifuged at 200x g for 5 min. The suspension was discarded and the pellet was resuspended in the either the 5.5 mM galactose medium (DMEM+10% FBS+5.5 mM of galactose) or the 10 mM propionate medium (DMEM+10% FBS+10 mM sodium propionate). The cells were seeded at 750 cells/well (50 μL) into a 384-well plate containing the test compounds (3-fold serial dilution across 10 plates, starting at 10 uM). For the positive control experiment, the cells were suspended in either the 5.5 mM galactose medium or 10 mM propionate medium+5.5 mM glucose+0.01% DMSO and seeded at 750 cells/well (50 μL) into the blank wells. For the negative control experiment, the cells were suspended in the 5.5 mM galactose or 10 mM propionate medium +0.01% DMSO and seeded at 750 cells/well (50 μL) into the blank wells. The seeded plates were incubated at 37° C. for 96 hours, then 15 μL/well of 16% paraformaldehyde solution was added to the plates and allowed to sit for 15 min to fix the cells. The plates were then washed 3x with 50 μL/well of PBS. The cells were stained with 25 μL/well of a solution of DAPI and left at room temperature for 1 hr. The plates were then washed 3x with 50 μL/well of PBS prior to imaging. Agilent BioTek EL406 Microplate Washer Dispenser was used for the cell fixation and staining protocol. The plates were imaged using GE InCell2200 Cell Analyzer using PerkinElmer Columbus software quantification protocol. The data was analyzed using Genedata, Vortex, and Abase software. A Z-score value of >2 was used for both the Prestwick/Selleck and SPECS library (based on the negative control population) to determine hit selection.

Each structure is given as a SMILES string.

On to `CCCCOc1c(C(=O)c2c(F)cc(C)cc2F)cnc2n[nH]cc12` [BMS-265246, (4-butoxy-2H-pyrazolo[3,4-b]pyridin-5-yl)-(2,6-difluoro-4-methylphenyl)methanone], for which the concentration-dependent curves entry with ECHS1 Fibroblast cells [1] is on record as “non-linear response”.

Regarding `COc1ccc(-n2c(C)c([N+](=O)[O-])c3ccc(O)cc32)cc1` [ID-8, 1-(4-methoxyphenyl)-2-methyl-3-nitroindol-6-ol], in the assay with ECHS1 Fibroblast cells [1], the concentration-dependent curves entry is recorded as “non-linear response”.

Regarding `Cc1cccc(-c2n[nH]cc2-c2ccc3ncccc3n2)n1` [RepSox, 2-[5-(6-methylpyridin-2-yl)-1H-pyrazol-4-yl]-1,5-naphthyridine], the Propionate assay hits entry with ECHS1 Fibroblast cells [1] is “hits”. For the same molecule, in assay [2], the respiration result is given as “did not result in major changes”. For the same molecule, the Galactose assay hits result in the assay on ECHS1 Fibroblast cells [3] is on record as “hits”.

Turning to `COc1nccc(-c2c(-c3ccc(F)cc3)ncn2[C@H]2CC[C@H](O)CC2)n1` [SB-239063, 4-[4-(4-fluorophenyl)-5-(2-methoxypyrimidin-4-yl)imidazol-1-yl]cyclohexan-1-ol], the nuclei count entry in the assay on ECHS1 Fibroblast cells [3] (galactose assay, FIG. 1) was “concentration-dependent increase”. Besides, the concentration-dependent curves entry in the assay with ECHS1 Fibroblast cells [3] (galactose potency screen, FIG. 2) was “non-linear response”.

Turning to `CNC(C)C(=O)NC1CCCCC2CCC(C(=O)NC(c3ccccc3)c3cn(CCCCc4ccc(CCCCn5cc(C(NC(=O)C6CCC7CCCCC(NC(=O)C(C)NC)C(=O)N76)c6ccccc6)nn5)cc4)nn3)N2C1=O` [SM-164, (3S,6S, 10aS)-N-[(S)-[1-[4-[4-[4-[4-[(S)-[[(3S,6S,10aS)-6-[[(2S)-2-(methylamino)propanoyl]amino]-5-oxo-2,3,6,7,8,9,10,10a-octahydro-1H-pyrrolo[1,2-a]azocine-3-carbonyl]amino]-phenylmethyl]triazol-1-yl]butyl]phenyl]butyl]triazol-4-yl]-phenylmethyl]-6-[(2S)-2-(methylamino)propanoyl]amino]-5-oxo-2,3,6,7,8,9,10,10a-octahydro-1H-pyrrolo[1,2-a]azocine-3-carboxamide], the concentration-dependent curves entry in the assay with ECHS1 Fibroblast cells [1] is “non-linear response”.

Turning to `Fc1ccc(-c2nc(-c3c(F)cccc3F)[nH]c2-c2ccncc2)cc1` [TA-01, 4-[2-(2,6-difluorophenyl)-4-(4-fluorophenyl)-1H-imidazol-5-yl]pyridine], in the assay with ECHS1 Fibroblast cells [1], the Propionate assay hits result was “hits”. In the assay on ECHS1 Fibroblast cells [3], the Galactose assay hits result is given as “hits”.

With `CCC(=O)Nc1cccc(Oc2nc(Nc3ccc(N4CCN(C)CC4)cc3OC)ncc2Cl)c1` [WZ4003, N-[3-[5-chloro-2-[2-methoxy-4-(4-methylpiperazin-1-yl)anilino]pyrimidin-4-yl]oxyphenyl]propanamide], the nuclei count entry in the assay with ECHS1 Fibroblast cells [1] (propionate assay, FIG. 3) is “concentration-dependent increase”. In addition, in the assay with ECHS1 Fibroblast cells [1], the concentration-dependent curves entry is reported as “non-linear response”.

As to `CCOC(=O)C1=C(C)NC(C)=C(C(=O)OC)C1c1cccc(Cl)c1Cl` (stereo not shown) [felodipine, 5-O-ethyl 3-O-methyl 4-(2,3-dichlorophenyl)-2,6-dimethyl-1,4-dihydropyridine-3,5-dicarboxylate], in assay [2], the “ATP production from glycolysis” value is “increased”; the “basal and maximal respiration” value is “decreased”; the respiration result is “did not result in major changes”.

As to `Cc1ccc(-n2nc(C(C)(C)C)cc2NC(=O)NCc2cc(F)ccc2Oc2ccc3c(cnn3CCO)c2)cc1` [pexmetinib], the Propionate assay hits entry in the assay on ECHS1 Fibroblast cells [1] is “hits”. In the assay with ECHS1 Fibroblast cells [1], the concentration-dependent curves result is recorded as “non-linear response”. For the same molecule, the “increase in cell number per well” value in assay [2] (1 μM, both galactose and glucose cultured plates) worked out at 14%. The “total ATP production” value in assay [2] (most pronounced in the 1-5 μM range) is on record as “some recovery”. Besides, the maximal respiration result in assay [2] (galactose-treated cells) is “less pronounced”; in assay [2] (glucose-treated cells), “increased to similar levels to the control cells”. In addition, in the assay on ECHS1 Fibroblast cells [3], the Galactose assay hits entry was “hits”.

Source of the values: patent US20240316055A1, “METHODS FOR TREATING LEIGH SYNDROME” (DBCC Research, LLC, priority 2023, published 2024).
